Laboratory results from patent US20040241114A1, “Hair Care and Nail Care Compositions Based on Ion-Pair Delivery System for Gender and Ethnic Selective Applications” (priority 2003, published 2004).

Assays:
Assay type in all cases: physicochemical
[1] = pH of 1% water solution
[2] = Solubility in water
Description: The ion-pair compositions thus formed are not just physical mixtures of the two compositions that are combined in an ion-pair mode to form such ion-pair compositions. Such ion-pair compositions are discreet chemical entities. For example, the combination of niacinamide with N-Acetyl-Cysteine results in the formation of ion-pair complex, Niacinamide N-Acetyl Cysteinate. […] Niacinamide N-Acetyl-Cysteinate, the ion-pair that is produced from the combination of the above two compositions is a new ingredient properties of which are very different from that of the above two compositions, which shall be described elsewhere.

[3] = Stability of water solution

Structure (SMILES)	pH of 1% water solution [1]	solubility in water [2]	stability of water solution [3]
NC(=O)c1cccnc1 [niacinamide]	6.3	50%	good
CC(=O)N[C@@H](CS)C(=O)O [N-Acetyl-Cysteine]	3.5	> 20%	poor
